Experimental findings from patent US20140148500A1, “PROGRAMMABLE SELF-ASSEMBLED NANOSTRUCTURES BASED ON SIDECHAIN-MODIFIED PNA FOR THE MULTIVALENT DISPLAY OF LIGANDS” (priority 2010, published 2014) are described below.

Where “and” joins values, the source holds several entries; their conditions need not be identical. Equal values may be shown once.

This assay concerns C32 cells. The experiment in a line: Cell adhesion assay, IC50 of multivalent RGD constructs (method of Sipes et al.). It is filed as cell-based. To be noted: read-out: IC50 Data (nM), RGD control result in parenthesis, unnormalized, control run alongside the data point it follows. An excerpt:
Multi 1 indicates one PNA construct associated with the DNA. Multi 2 indicates two PNA construct associated with the DNA and so on. […] In the constructs depicted herein, the designator in parentheses (T5, for example) represents the number of thymine bases in the DNA sequence that is inserted to create a spacer between adjacent PNA binding portions of the DNA. T0 represents the absence of any spacer thymine bases. […] “x” indicates no data is available for that experiment. […] Constructs from Example 5 were utilized herein.

A word on the IC50: it is the concentration that inhibits the measured activity by half. For the compound `N=C(N)NCCC[C@@H]1NC(=O)[C@H](CCCCN)NC(=O)[C@@H](Cc2ccccc2)NC(=O)[C@H](CC(=O)O)NC(=O)CNC1=O` [RGD], the IC50 was 475 nM and 329 nM and 690 nM.
